Measured values published in patent US20200010482A1, “INHIBITORS OF BETA SECRETASE” (Janssen Pharmaceutica NV, priority 2017, published 2020).

Test system: brain levels of soluble Aβ42, Aβ40, Aβ38, and Aβ37
Experiment: In vivo Aβ lowering, brain levels of soluble Aβ by MSD electrochemiluminescence
Parameters: species or system mouse
Settings: 10 mg/kg s.c., 4 h after administration; untreated animals as control set at 100
Text: To determine whether acute administration of an Aβ lowering agent would reduce Aβ levels in vivo, non-transgenic rodents, e.g. mice or rats were used. Animals treated with the Aβ lowering agent were examined and compared to those untreated or treated with vehicle and brain levels of soluble Aβ42, Aβ40, Aβ38, and Aβ37 were quantitated by Meso Scale Discovery's (MSD) electrochemiluminescence detection technology. Treatment periods varied from hours (h) to days and were adjusted based on the results of the Aβ lowering once a time course of onset of effect could be established.
A typical protocol for measuring Aβ lowering in vivo is shown but it is only one of many variations that could be used to optimize the levels of detectable Aβ. […] After 4 h, the animals were sacrificed and Aβ levels were analysed.
Blood was collected by decapitation and exsanguinations in EDTA-treated collection tubes. […] The left hemisphere was stored at −18° C. for quantitative analysis of test compound levels. […]
Mouse brains from non-transgenic animals were resuspended in 8 volumes of 0.4% DEA (diethylamine)/50 mM NaCl containing protease inhibitors (Roche-11873580001 or 04693159001) per gram of tissue, e.g. for 0.158 g brain, add 1.264 ml of 0.4% DEA. […] Nine parts of supernatant were neutralized with 1 part 0.5 M Tris-HCl pH 6.8 and used to quantify Aβ. […]

Q: Which results are given for COc1ncc(C#N)c2c1C[C@]1(c3ccccc3F)N=C(N)SC[C@@H]1C2 (racemic) [Compound 22]?
A: Aβ40 (% vs Ctrl)_Mean: 39 % vs Ctrl; Aβ42 (% vs Ctrl)_Mean: 32 % vs Ctrl
